Measured values from patent US12528815B2, “5-amino-8-(4-pyridyl)-[1,2,4]triazolo[4,3-c]pyrimidin-3-one compounds for use against cancer” (Nxera Pharma UK Limited, priority 2020, dated 2026).

Assays:
[1] = biological target: T1, human adenosine A2A receptor (Homo sapiens, UniProt P29274); assay: Inhibition binding assay, human adenosine A2A receptor membranes, [3H]ZM241385; conditions: 1 nM [3H]ZM241385, HEK293-hA2A membranes, 25° C., 1 h; IC50 converted to Ki with Cheng-Prusoff; read-out: A2A pKi (converted)
T1 construct: expressed in transfected cells; host or cells: HEK293 cells infected with BacMam
Procedure, shortened: (§1)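 Membranes from BacMam-infected HEK293 cells (0.2 μg A2A, 1.4 μg A1) incubated 1 h at 25° C with test compound and 1 nM [3H]ZM241385 (A2A; 50 mM Tris-HCl pH 7.4) or [3H]DPCPX (A1; plus 100 mM NaCl, 10 mM MgCl2). Nonspecific: 1 μM CGS15943 or DPCPX. Filtration, scintillation; IC50 converted to Ki via Cheng-Prusoff.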

[2] = biological target: T2, human adenosine A1 receptor (Homo sapiens, UniProt P30542); assay: Inhibition binding assay, human adenosine A1 receptor membranes, [3H]DPCPX; conditions: 1 nM [3H]DPCPX, 25° C., 1 h; IC50 converted to Ki with Cheng-Prusoff; read-out: A1 pKi (converted)
T2 construct: expressed in transfected cells; host or cells: HEK293 cells infected with BacMam (the same paragraph also labels the preparation CHO-hA1)
T2 sequence (P30542 1-326): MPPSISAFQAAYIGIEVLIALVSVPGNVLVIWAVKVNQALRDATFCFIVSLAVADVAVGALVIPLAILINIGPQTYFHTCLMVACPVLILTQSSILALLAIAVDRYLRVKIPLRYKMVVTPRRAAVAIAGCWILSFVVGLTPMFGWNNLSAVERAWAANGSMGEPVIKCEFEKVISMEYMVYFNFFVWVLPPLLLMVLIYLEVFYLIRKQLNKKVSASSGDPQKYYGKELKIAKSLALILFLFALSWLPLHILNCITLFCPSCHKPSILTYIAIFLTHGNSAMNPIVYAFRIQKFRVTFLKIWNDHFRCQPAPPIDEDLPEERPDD
Procedure, shortened: as §1

T1 sequence (P29274 whole entry): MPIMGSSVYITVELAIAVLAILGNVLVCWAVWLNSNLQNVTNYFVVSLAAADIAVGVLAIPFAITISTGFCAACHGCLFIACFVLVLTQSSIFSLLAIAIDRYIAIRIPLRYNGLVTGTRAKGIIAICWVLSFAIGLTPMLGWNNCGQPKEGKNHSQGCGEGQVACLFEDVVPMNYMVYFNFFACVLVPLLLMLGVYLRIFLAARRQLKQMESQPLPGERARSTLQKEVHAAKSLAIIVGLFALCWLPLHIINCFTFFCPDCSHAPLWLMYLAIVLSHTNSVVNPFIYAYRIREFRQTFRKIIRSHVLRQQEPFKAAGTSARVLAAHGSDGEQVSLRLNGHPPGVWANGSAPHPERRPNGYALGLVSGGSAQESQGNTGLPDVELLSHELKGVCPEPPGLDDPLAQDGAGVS

Row | Structure (SMILES) | Ki [1] [nM] | Ki [2] [nM]
1 | Cc1cc(-c2c(-c3ccc(F)cc3)nc(N)n3c(=O)n(CCN4CCCCC4)nc23)cc(C)n1 [Example 2-104, 5-amino-8-(2,6-dimethyl-4-pyridyl)-7-(4-fluorophenyl)-2-[2-(1-piperidyl)ethyl]-[1,2,4]triazolo[4,3-c]pyrimidin-3-one] | 79.4 | > 3980
2 | Cc1cc(-c2c(-c3ccccc3)nc(N)n3c(=O)n(CCCn4ccccc4=O)nc23)cc(C)n1 [Example 2-112, 5-amino-8-(2,6-dimethylpyridin-4-yl)-2-(3-(2-oxopyridin-1(2H)-yl)propyl)-7-phenyl-[1,2,4]triazolo[4,3-c]pyrimidin-3(2H)-one] | 3.16 | 200
3 | Cc1cc(-c2c(-c3ccccc3)nc(N)n3c(=O)n(Cc4ccccc4CC4CCNCC4)nc23)cc(C)n1 [Example 1-32, 5-amino-8-(2,6-dimethyl-4-pyridyl)-7-phenyl-2-[[2-(4-piperidylmethyl)phenyl]methyl]-[1,2,4]triazolo[4,3-c]pyrimidin-3-one] | 0.126 | 3.98
4 | Cc1cc(-c2c(-c3ccccc3)nc(N)n3c(=O)n(CCC(=O)N(C)C)nc23)cc(C)n1 [Example 2-23, 3-[5-amino-8-(2,6-dimethyl-4-pyridyl)-3-oxo-7-phenyl-[1,2,4]triazolo[4,3-c]pyrimidin-2-yl]-N,N-dimethyl-propanamide] | 12.6 | 1000
5 | Cc1cc(-c2c(-c3ccccc3)nc(N)n3c(=O)n(CCN(C)CC(=O)N4CCC(O)CC4)nc23)cc(C)n1 [Example 2-107, 5-amino-8-(2,6-dimethyl-4-pyridyl)-2-[2-[[2-(4-hydroxy-1-piperidyl)-2-oxo-ethyl]-methyl-amino]ethyl]-7-phenyl-[1,2,4]triazolo[4,3-c]pyrimidin-3-one] | 63.1 | > 3160
6 | Cc1ccc(Cn2nc3c(-c4cc(C)nc(CO)c4)c(-c4ccc(F)cc4)nc(N)n3c2=O)nc1 [Example 1-61, 5-amino-7-(4-fluorophenyl)-8-[2-(hydroxymethyl)-6-methyl-4-pyridyl]-2-[(5-methyl-2-pyridyl)methyl]-[1,2,4]triazolo[4,3-c]pyrimidin-3-one] | 1.58 | > 1580
7 | Cc1cc(-c2c(-c3ccccc3)nc(N)n3c(=O)n(CCNC(C)c4nnc5ncccn45)nc23)cc(C)n1 (stereo not shown) [Example 1-92, 5-amino-8-(2,6-dimethyl-4-pyridyl)-7-phenyl-2-[2-[1-([1,2,4]triazolo[4,3-a]pyrimidin-3-yl)ethylamino]ethyl]-[1,2,4]triazolo[4,3-c]pyrimidin-3-one] | 126 | > 3980
8 | CCOc1ccccc1Cn1nc2c(-c3cc(C)nc(C)c3)c(-c3ccccc3)nc(N)n2c1=O [Example 1-25, 5-amino-8-(2,6-dimethyl-4-pyridyl)-2-[(2-ethoxyphenyl)methyl]-7-phenyl-[1,2,4]triazolo[4,3-c]pyrimidin-3-one] | 0.2 | 6.31
9 | CC1=NN(c2cccc(NCCn3nc4c(-c5cc(C)nc(C)c5)c(-c5ccccc5)nc(N)n4c3=O)c2)C(=O)C1 [Example 1-98, 5-amino-8-(2,6-dimethyl-4-pyridyl)-2-[2-[3-(3-methyl-5-oxo-4H-pyrazol-1-yl)anilino]ethyl]-7-phenyl-[1,2,4]triazolo[4,3-c]pyrimidin-3-one] | 79.4 | 1000
10 | Cc1ccc(NC2CCN(CCn3nc4c(-c5cc(C)nc(C)c5)c(-c5ccccc5)nc(N)n4c3=O)CC2)nc1 [Example 1-97, 5-amino-8-(2,6-dimethyl-4-pyridyl)-2-[2-[4-[(5-methyl-2-pyridyl)amino]-1-piperidyl]ethyl]-7-phenyl-[1,2,4]triazolo[4,3-c]pyrimidin-3-one] | 63.1 | > 3980
11 | Cc1cc(-c2c(-c3ccccc3)nc(N)n3c(=O)n(C(CC4COCCN4)c4ccccc4)nc23)cc(C)n1 (stereo not shown) [Example 1-103, 5-amino-8-(2,6-dimethyl-4-pyridyl)-2-(2-morpholin-3-yl-1-phenyl-ethyl)-7-phenyl-[1,2,4]triazolo[4,3-c]pyrimidin-3-one] | 15.8 | 1000
12 | Cc1cc(-c2c(-c3ccccc3)nc(N)n3c(=O)n(C[C@H]4COCCN4)nc23)cc(C)n1 [Example 2-76, 5-amino-8-(2,6-dimethyl-4-pyridyl)-2-[[(3S)-morpholin-3-yl]methyl]-7-phenyl-[1,2,4]triazolo[4,3-c]pyrimidin-3-one] | 15.8 | 631
13 | Cc1cc(-c2c(-c3ccccc3)nc(N)n3c(=O)n(Cc4ccc(Br)cn4)nc23)cc(CO)n1 [Example 1-53, 5-amino-2-[(5-bromo-2-pyridyl)methyl]-8-[2-(hydroxymethyl)-6-methyl-4-pyridyl]-7-phenyl-[1,2,4]triazolo[4,3-c]pyrimidin-3-one] | 2.51 | 501
14 | Cc1cc(-c2c(-c3ccccc3)nc(N)n3c(=O)n(Cc4ccc(F)c(=O)n4C)nc23)cc(C)n1 [Example 1-10, 5-amino-8-(2,6-dimethyl-4-pyridyl)-2-[(5-fluoro-1-methyl-6-oxo-2-pyridyl)methyl]-7-phenyl-[1,2,4]triazolo[4,3-c]pyrimidin-3-one] | 20 | 794
15 | Cc1cc(-c2c(-c3ccc(F)cc3)nc(N)n3c(=O)n(C)nc23)cc(Cl)n1 [Example 2-49, 5-amino-8-(2-chloro-6-methyl-4-pyridyl)-7-(4-fluorophenyl)-2-methyl-[1,2,4]triazolo[4,3-c]pyrimidin-3-one] | 39.8 | 501
16 | Cc1cc(-c2c(-c3ccccc3)nc(N)n3c(=O)n(Cc4ccc(F)cn4)nc23)cc(Cl)n1 [Example 1-76, 5-amino-8-(2-chloro-6-methyl-4-pyridyl)-2-[(5-fluoro-2-pyridyl)methyl]-7-phenyl-[1,2,4]triazolo[4,3-c]pyrimidin-3-one] | 0.126 | 79.4
17 | Cc1cc(-c2c(-c3ccccc3)nc(N)n3c(=O)n(Cc4cccnc4-n4cccn4)nc23)cc(C)n1 [Example 1-19, 5-amino-8-(2,6-dimethyl-4-pyridyl)-7-phenyl-2-[(2-pyrazol-1-yl-3-pyridyl)methyl]-[1,2,4]triazolo[4,3-c]pyrimidin-3-one] | 1.26 | 100
18 | COC(=O)CCN1CCC(CCn2nc3c(-c4cc(C)nc(C)c4)c(-c4ccccc4)nc(N)n3c2=O)CC1 [Example 2-109, methyl 3-[4-[2-[5-amino-8-(2,6-dimethyl-4-pyridyl)-3-oxo-7-phenyl-[1,2,4]triazolo[4,3-c]pyrimidin-2-yl]ethyl]-1-piperidyl]propanoate] | 20 | 398
19 | Cc1cc(-c2c(-c3ccccc3)nc(N)n3c(=O)n(CCc4ccccc4)nc23)cc(C(F)(F)F)n1 [Example 1-88, 5-amino-8-[2-methyl-6-(trifluoromethyl)-4-pyridyl]-7-phenyl-2-(2-phenylethyl)-[1,2,4]triazolo[4,3-c]pyrimidin-3-one] | 12.6 | 100
20 | [2H]c1c([2H])c([2H])c(-c2nc(N)n3c(=O)n(Cc4ccc(F)cn4)nc3c2-c2cc(C)nc(CO)c2)c([2H])c1[2H] [Example 1-49, 5-amino-2-[(5-fluoro-2-pyridyl)methyl]-8-[2-(hydroxymethyl)-6-methyl-4-pyridyl]-7-(2,3,4,5,6-pentadeuteriophenyl)-[1,2,4]triazolo[4,3-c]pyrimidin-3-one] | 1.58 | 398
